Reference: article PMC4041848, “Differential Effects of Omeprazole and Lansoprazole Enantiomers on Aryl Hydrocarbon Receptor in Human Hepatocytes and Cell Lines” (PLoS ONE, 2014)
Like-named read-outs stand apart in the source and are kept apart here.

Experiments:
[1] = test system: CYP1A1/1A2 enzymes (EROD); experiment: EROD activity in primary human hepatocytes; settings: hepatocyte culture Hep220774, 24 h, 5 nM
Method: Figure 3 Effects of omeprazole and lansoprazole enantiomers on CYP1A1 mRNA, protein and EROD activity in primary human hepatocytes. Panel A and Panel B: RT-PCR analyses of CYP1A1 and CYP1A2 mRNA and western blots of CYP1A1 and CYP1A2 from two different cultures (HH52 and Hep220770) are shown. Human hepatocytes were incubated for 24 h (mRNA analysis) or 48 (protein analysis) with S-OME, R-OME, rac-OME, S-LAN, R-LAN, rac-LAN, TCDD and vehicle (DMSO; 0.1% v/v). RT-PCR data are the mean ± SD from triplicate measurements and are expressed as fold induction over vehicle-treated cells. Data were normalized to GAPDH mRNA levels. Density of bands in western blots was quantified by densitometry and the values are indicated along with respective blots. Panel C: EROD and cytotoxicity: Human hepatocytes (culture Hep220774) were treated for 24 h with S-OME, R-OME, rac-OME, S-LAN, R-LAN, rac-LAN, TCDD and vehicle (DMSO; 0.1% v/v). Upper bar graph: An activity of 7-ethoxyresorufin- O-deethylase (EROD) was measured by fluorescent spectrophotometry with 530 nm excitation and 590 nm emission filters. Treatments were performed in triplicates. The data are expressed as fold induction over the value from control cells. Lower bar graph: A conventional MTT test was performed and absorbance was measured at 540 nm. […] The data are expressed as percentage of viability of control cells. […]

[2] = test system: CYP1A1 catalytic activity (EROD); experiment: EROD catalytic activity in HepG2 cells; settings: HepG2, 24 h, 5 nM
[3] = test system: CYP1A1 mRNA; settings: HepG2, 24 h
Method: (§1) Total RNA was isolated using TRI Reagent (Molecular Research Center, Cincinnati, OH, USA). cDNA was synthesized from 1000 ng of total RNA using M-MLV Reverse Transcriptase (Finnzymes, Espoo, Finland) at 42°C for 60 min in the presence of random hexamers (Takara, Shiga, Japan). qRT-PCR was carried out using LightCycler FastStart DNA MasterPLUS SYBR Green I (Roche Diagnostic Corporation, Prague, Czech Republic) on a Light Cycler 480 II apparatus (Roche Diagnostic Corporation). CYP1A1, CYP1A2 and GAPDH mRNAs were determined as described previously. Measurements were performed in triplicates. Gene expression was normalized to GAPDH as a housekeeping gene.
Treatments were performed in triplicates.

[4] = test system: CYP1A1 protein; experiment: CYP1A1 protein induction in primary human hepatocytes (western blot)
Description: Primary human hepatocytes used in this study were obtained from two sources: (i) from multiorgan donor HH52; the use of liver cells of donor HH52 was approved by “Ethical committee at the Faculty Hospital Olomouc”,and it was in accordance with Transplantation law #285/2002 Sb; “Ethical committee at the Faculty Hospital Olomouc” waived the authors from obtaining consent from the next of kin, regarding human hepatocytes obtained from liver donor HH52. (ii) long-term human hepatocytes in monolayer Batch HEP220770 (person), Batch HEP220774 (person) were purchased from Biopredic International (Biopredic International, Rennes, France). Cells were cultured in serum-free medium. […]
Total protein extracts were prepared from cells cultured on 6-well plates. […] Supernatant was collected and the protein content was determined by the Bradford reagent. […] The density of bands was measured by densitometry. […]
Figure 3 Effects of omeprazole and lansoprazole enantiomers on CYP1A1 mRNA, protein and EROD activity in primary human hepatocytes. […] RT-PCR data are the mean ± SD from triplicate measurements and are expressed as fold induction over vehicle-treated cells. […] Density of bands in western blots was quantified by densitometry and the values are indicated along with respective blots. […] The data are expressed as fold induction over the value from control cells. […]

[5] = test system: aryl hydrocarbon receptor AhR; experiment: AhR gene reporter assay, agonist mode; settings: for EC50 at 24 h: human
Method: (§2) A stably transfected gene reporter cell line AZ-AHR, derived from human hepatoma HepG2 cells transfected with a construct containing several AhR binding sites upstream of a luciferase reporter gene, was used for assessment of AhR transcriptional activity. Cells were incubated for 24 h with tested compounds and/or vehicle (DMSO; 0.1% v/v), in the presence or absence of TCDD (10 nM; AZ-AHR cells) or DEX (100 nM; AZ-GR cells). After the treatments, cells were lysed and luciferase activity was measured. In parallel, cell viability was determined by conventional MTT test.
(§3) Figure 1 Effect of omeprazole and lansoprazole enantiomers on transcriptional activity of aryl hydrocarbon receptor AhR in human gene reporter cell line AZ-AHR. The cells were seeded in 96-well plates and stabilized for 16 h. Panels A and B: Cells were incubated for 24 h with S-OME, R-OME, rac-OME, S-LAN, R-LAN and rac-LAN at concentrations ranging from 10^−10 M to 10^−4 M. The vehicle was DMSO (0.1% v/v). After the treatment, MTT test was performed and absorbance was measured at 540 nm. Treatments were performed in triplicates. The data are the mean from experiments from six different passages of cells and are expressed as a percentage of viability of control cells. The values of IC50 were calculated and are indicated in a figure. Panels C - F: AZ-AHR cells were incubated for 24 h with S-OME, R-OME, rac-OME, S-LAN, R-LAN and rac-LAN at concentrations ranging from 10^−10 M to 10^−4 M in the absence (Panels C and D - agonist mode) or in the presence (Panels E and F- antagonist mode) of TCDD (5 nM). The vehicle was DMSO (0.1% v/v). After the treatments, cells were lysed and luciferase activity was measured. Treatments were performed in triplicates in five (agonist mode) or four (antagonist mode) independent cell passages. […] Data are expressed as a fold induction of luciferase activity over control cells (Panels C and D - agonist mode) or as a percentage of maximal induction attained by TCDD (Panels E and F- antagonist mode).
Gene reporter assays were performed in two different experimental layouts. […] In antagonist mode, cells were incubated with increasing concentrations of tested compounds in combination with model agonist (TCDD; 5 nM), and half-maximal inhibitory concentrations (IC50) were calculated. […] The efficacy was calculated at concentration of compounds of 100 µM and compared to 5 nM TCDD (Figure 1C).

[6] = test system: AZ-AHR cells; experiment: MTT cytotoxicity test in AZ-AHR reporter cells; settings: AZ-AHR cells, 24 h, MTT, concentrations up to 250 µM
Method: as §2
(§4) In the first series of experiments, the cytotoxicity of tested compounds was assessed in gene reporter cell line AZ-AHR. For this purpose, the cells were incubated for 24 h with S-OME, R-OME, rac-OME, S-LAN, R-LAN and rac-LAN at concentration ranging from 100 pM to 250 µM. The vehicle was DMSO (0.1% v/v). After the treatment, a conventional MTT test was performed.
as §3

[7] = test system: CYP1A2 mRNA; experiment: CYP1A2 mRNA induction in primary human hepatocytes (qRT-PCR); settings: hepatocyte culture HH52, 24 h, 100 µM
Description: (§5) Primary human hepatocytes used in this study were obtained from two sources: (i) from multiorgan donor HH52; the use of liver cells of donor HH52 was approved by “Ethical committee at the Faculty Hospital Olomouc”,and it was in accordance with Transplantation law #285/2002 Sb; “Ethical committee at the Faculty Hospital Olomouc” waived the authors from obtaining consent from the next of kin, regarding human hepatocytes obtained from liver donor HH52. (ii) long-term human hepatocytes in monolayer Batch HEP220770 (person), Batch HEP220774 (person) were purchased from Biopredic International (Biopredic International, Rennes, France). Cells were cultured in serum-free medium. Cultures were maintained at 37°C and 5% CO2 in a humidified incubator.
as §1, with “Gene expression was normalized to GAPDH as a housekeeping gene.” left out

[8] = test system: aryl hydrocarbon receptor AhR; experiment: AhR gene reporter assay, antagonist mode (with TCDD); settings: read-out: AhR antagonist IC50; AZ-AHR cells, 24 h, in the presence of TCDD (5 nM), average of four passages
Method: as §2
Figure 1 Effect of omeprazole and lansoprazole enantiomers on transcriptional activity of aryl hydrocarbon receptor AhR in human gene reporter cell line AZ-AHR. The cells were seeded in 96-well plates and stabilized for 16 h. […] After the treatment, MTT test was performed and absorbance was measured at 540 nm. […] The data are the mean from experiments from six different passages of cells and are expressed as a percentage of viability of control cells. The values of IC50 were calculated and are indicated in a figure. […] After the treatments, cells were lysed and luciferase activity was measured. […] Data are expressed as a fold induction of luciferase activity over control cells (Panels C and D - agonist mode) or as a percentage of maximal induction attained by TCDD (Panels E and F- antagonist mode). […]

[9] = test system: CYP1A1 mRNA; experiment: CYP1A1 mRNA induction in primary human hepatocytes (qRT-PCR); settings: hepatocyte culture Hep220770, 24 h
Description: as §5, §1
We examined a capability of omeprazole and lansoprazole to induce CYP1A1 and CYP1A2 mRNA and protein in primary human hepatocytes, which is a more physiological and metabolically competent cell model. Human hepatocytes were treated for 24 h or 48 h with TCDD (5 nM), vehicle (DMSO; 0.1% V/V) and tested compounds.
Figure 3 Effects of omeprazole and lansoprazole enantiomers on CYP1A1 mRNA, protein and EROD activity in primary human hepatocytes. Panel A and Panel B: RT-PCR analyses of CYP1A1 and CYP1A2 mRNA and western blots of CYP1A1 and CYP1A2 from two different cultures (HH52 and Hep220770) are shown. Human hepatocytes were incubated for 24 h (mRNA analysis) or 48 (protein analysis) with S-OME, R-OME, rac-OME, S-LAN, R-LAN, rac-LAN, TCDD and vehicle (DMSO; 0.1% v/v). RT-PCR data are the mean ± SD from triplicate measurements and are expressed as fold induction over vehicle-treated cells. Data were normalized to GAPDH mRNA levels. Density of bands in western blots was quantified by densitometry and the values are indicated along with respective blots. Panel C: EROD and cytotoxicity: Human hepatocytes (culture Hep220774) were treated for 24 h with S-OME, R-OME, rac-OME, S-LAN, R-LAN, rac-LAN, TCDD and vehicle (DMSO; 0.1% v/v). Upper bar graph: An activity of 7-ethoxyresorufin- O-deethylase (EROD) was measured by fluorescent spectrophotometry with 530 nm excitation and 590 nm emission filters. Treatments were performed in triplicates. The data are expressed as fold induction over the value from control cells. Lower bar graph: A conventional MTT test was performed and absorbance was measured at 540 nm. Treatments were performed in triplicates. The data are expressed as percentage of viability of control cells.

[10] = MTT cytotoxicity test in AZ-AHR reporter cells; settings: human
Method: as §2, §4, §3

[11] = AZ-AHR cells, 24 h, compared to 5 nM TCDD, calculated at 100 µM compound (stated for omeprazole)

Compound: Clc1cc2c(cc1Cl)Oc1cc(Cl)c(Cl)cc1O2 [TCDD, 2,3,7,8-tetrachlorodibenzo-p-dioxin]
- induction of EROD activity [1]: approximately 15 fold
- EROD activity, average increase [2]: 22-23 fold
- CYP1A1 mRNA induction ([3]; 5 nM, vs vehicle-treated cells): approximately 230 fold
- CYP1A1 protein induction ([4]; hepatocyte culture HH52, 48 h): drastic increase
- induction of AhR-dependent luciferase activity, average ([5]; 5 nM TCDD, five consecutive passages, vs vehicle-treated cells): 354 fold

Compound: COc1ccc2nc([S@+]([O-])Cc3ncc(C)c(OC)c3C)[nH]c2c1 [R-OME, R-omeprazole]
- cytotoxicity [6]: not cytotoxic
- CYP1A2 mRNA induction [7]: 71 % of TCDD induction
- AhR agonist efficacy [5]: 48.6±26.8%
- EC50 ([5]; read-out: AhR agonist EC50, AZ-AHR cells, 24 h, luciferase, average of five passages): 35.1 ± 3.7 µM
- IC50 [8]: 54.8 ± 25.9 µM

Compound: COc1ccc2[nH]c([S+]([O-])Cc3ncc(C)c(OC)c3C)nc2c1 (racemic) [rac-OME, rac-omeprazole]
- CYP1A1 mRNA induction ([9]; 100 µM): 740 fold
- CYP1A1 mRNA induction ([9]; 250 µM): 706 fold
- CYP1A1 mRNA induction ([3]; 250 µM): approximately 180 fold
- CYP1A1 protein induction ([4]; hepatocyte culture Hep220770, 48 h, 100 µM): strong induction
- IC50 at 24 h [10]: > 250 µM
- cytotoxicity [6]: not cytotoxic
- AhR agonist efficacy [5, 11]: 51.4±30.4%
- EC50 at 24 h [5]: 30.1 ± 2.2 µM

Compound: Cc1c(OCC(F)(F)F)ccnc1C[S+]([O-])c1nc2ccccc2[nH]1 (racemic) [rac-LAN, rac-lansoprazole]
- CYP1A1 mRNA induction ([9]; 100 µM): 358 fold
- IC50 at 24 h [10]: > 250 µM
- AhR agonist efficacy [5, 11]: 22.8±5.6%
- EC50 at 24 h [5]: 2.4 ± 0.1 µM
